Where a name gives a salt, the structure may show the parent alone.
molecular target: T1, human 5-HT3 serotonin receptors (Homo sapiens, UniProt P46098); assay: biochemical; assay type: binding; conditions: not given
T1 sequence (P46098 24-478): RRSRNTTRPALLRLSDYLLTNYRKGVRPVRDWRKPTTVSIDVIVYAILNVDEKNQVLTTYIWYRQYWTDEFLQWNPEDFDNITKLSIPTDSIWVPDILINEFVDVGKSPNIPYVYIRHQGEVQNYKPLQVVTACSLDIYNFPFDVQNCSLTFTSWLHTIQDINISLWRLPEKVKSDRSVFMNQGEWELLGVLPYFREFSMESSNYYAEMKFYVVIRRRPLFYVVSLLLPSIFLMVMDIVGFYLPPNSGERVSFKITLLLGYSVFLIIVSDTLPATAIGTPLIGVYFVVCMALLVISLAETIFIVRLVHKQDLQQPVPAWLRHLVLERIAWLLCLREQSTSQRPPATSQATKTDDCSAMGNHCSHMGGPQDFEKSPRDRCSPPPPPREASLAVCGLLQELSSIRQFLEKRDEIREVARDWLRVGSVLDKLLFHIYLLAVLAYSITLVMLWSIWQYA

`c1ccc(NC2=NOC3(C2)CN2CCC3CC2)cc1` (single isomer, unassigned) [Compound 1-P1, N-phenyl-4H-1′-azaspiro[isoxazole-5,3′-bicyclo[2.2.2]octan]-3-amine] and `Clc1cccc(NC2=NO[C@@]3(C2)CN2CCC3CC2)c1` [(R)-34, (R)—N-(3-chlorophenyl)-4H-1′-azaspiro[isoxazole-5,3′-bicyclo[2.2.2]octan]-3-amine hydrochloride] are within 1.5-fold of each other in Ki: 0.0084 µM for the first, 0.012 µM for the second.

First: Clc1ccc(NC2=NOC3(C2)CN2CCC3CC2)cc1 (single isomer, unassigned) [Compound 20-P1, N-(4-chlorophenyl)-4H-1′-azaspiro[isoxazole-5,3′-bicyclo[2.2.2]octan]-3-amine]
Second: Clc1ccc(NC2=NO[C@@]3(C2)CN2CCC3CC2)cc1 [(R)-20, (R)—N-(4-chlorophenyl)-4H-1′-azaspiro[isoxazole-5,3′-bicyclo[2.2.2]octan]-3-amine hydrochloride]
The Ki of the first is 1.6-fold lower: 0.069 µM for the first, 0.11 µM for the second.

`Clc1ccc(NC2=NOC3(C2)CN2CCC3CC2)cc1Cl` (single isomer, unassigned) [Compound 21-P1, N-(3,4-dichlorophenyl)-4H-1′-azaspiro[isoxazole-5,3′-bicyclo[2.2.2]octan]-3-amine] was tested, and the Ki was 0.0415 µM.

same assay, conditions: CHO cell membranes expressing human 5-HT3 receptors, [3H]BRL 43694, 120 min at room temperature; read-out: h-5HT3 Ki

First: c1ccc2c(NC3=NOC4(C3)CN3CCC4CC3)n[nH]c2c1 (racemic) [Compound 5-P1, N-(1H-indazol-3-yl)-4′H-4-azaspiro[bicyclo[2.2.2]octane-2,5′-isoxazol]-3′-amine]
Second: c1ccc2sc(NC3=NOC4(C3)CN3CCC4CC3)nc2c1 (single isomer, unassigned) [Compound 3-P2, N-(benzo[d]thiazol-2-yl)-4H-1′-azaspiro[isoxazole-5,3′-bicyclo[2.2.2]octan]-3-amine]
The Ki of the first is 2.1-fold higher: 0.75 µM for the first, 0.35 µM for the second. The second binds more tightly here.

First: c1ccc2sc(NC3=NOC4(C3)CN3CCC4CC3)cc2c1 (racemic) [rac-12, (+/−)-N-(benzo[b]thiophen-2-yl)-4H-1′-azaspiro[isoxazole-5,3′-bicyclo[2.2.2]octan]-3-amine]
Second: c1ccc2cc(NC3=NOC4(C3)CN3CCC4CC3)ncc2c1 (single isomer, unassigned) [Compound 2-P2, N-(isoquinolin-3-yl)-4H-1′-azaspiro[isoxazole-5,3′-bicyclo[2.2.2]octan]-3-amine]
The Ki of the first is 2.2-fold higher: 1.8 µM for the first, 0.81 µM for the second.

`COc1ccc2nc(NC3=NOC4(C3)CN3CCC4CC3)sc2c1` (single isomer, unassigned) [Compound 4-P2, N-(6-methoxybenzo[d]thiazol-2-yl)-4H-1′-azaspiro[isoxazole-5,3′-bicyclo[2.2.2]octan]-3-amine] and `Clc1ccc2nc(NC3=NOC4(C3)CN3CCC4CC3)sc2c1` (single isomer, unassigned) [Compound 10-P2, N-(6-chlorobenzo[d]thiazol-2-yl)-4H-1′-azaspiro[isoxazole-5,3′-bicyclo[2.2.2]octan]-3-amine] cannot be ordered by Ki: over 10 µM for the first, over 10 µM for the second.

Going from `Clc1ccc2sc(NC3=NOC4(C3)CN3CCC4CC3)nc2c1` (single isomer, unassigned) [Compound 9-P2, N-(5-chlorobenzo[d]thiazol-2-yl)-4H-1′-azaspiro[isoxazole-5,3′-bicyclo[2.2.2]octan]-3-amine] to `Cc1ccc2sc(NC3=NO[C@@]4(C3)CN3CCC4CC3)nc2c1` [(R)-25, (R)—N -(5-methylbenzo[d]thiazol-2-yl)-4H-1′-azaspiro[isoxazole-5,3′-bicyclo[2.2.2]octan]-3-amine hydrochloride], the Ki falls from over 10 µM to 4.2 µM.

Going from `c1ccc2oc(NC3=NOC4(C3)CN3CCC4CC3)nc2c1` (single isomer, unassigned) [Compound 13-P1, N-(benzo[d]oxazol-2-yl)-4H-1′-azaspiro[isoxazole-5,3′-bicyclo[2.2.2]octan]-3-amine] to `c1ccc2nc(NC3=NO[C@@]4(C3)CN3CCC4CC3)ncc2c1` [(R)-22, (R)—N-(quinazolin-2-yl)-4H-1′-azaspiro[isoxazole-5,3′-bicyclo[2.2.2]octan]-3-amine hydrochloride], the Ki rises from 2.4 µM to 5.2 µM (2.2-fold).

First: c1cc2nc(NC3=NOC4(C3)CN3CCC4CC3)sc2cc1C1CC1 (single isomer, unassigned) [Compound 15-P1, N-(6-cyclopropylbenzo[d]thiazol-2-yl)-4H-1′-azaspiro[isoxazole-5,3′-bicyclo[2.2.2]octan]-3-amine]
Second: c1cc2sc(NC3=NO[C@@]4(C3)CN3CCC4CC3)nc2cc1C1CC1 [(R)-26, (R)—N -(5-cyclopropylbenzo[d]thiazol-2-yl)-4H-1′-azaspiro[isoxazole-5,3′-bicyclo[2.2.2]octan]-3-amine hydrochloride]
The Ki of the first is higher: over 10 µM for the first, 3.1 µM for the second. The second binds more tightly here.

`Clc1ccc2cc(NC3=NOC4(C3)CN3CCC4CC3)ncc2c1` (single isomer, unassigned) [Compound 19-P2, N-(7-chloroisoquinolin-3-yl)-4H-1′-azaspiro[isoxazole-5,3′-bicyclo[2.2.2]octan]-3-amine] and `Clc1ccc2cc(NC3=NO[C@@]4(C3)CN3CCC4CC3)ncc2c1` [(R)-19, (R)—N-(7-chloroisoquinolin-3-yl)-4H-1′-azaspiro[isoxazole-5,3′-bicyclo[2.2.2]octan]-3-amine hydrochloride] cannot be ordered by Ki: over 10 µM for the first, over 10 µM for the second.

First: Clc1cccc2nc(NC3=NO[C@@]4(C3)CN3CCC4CC3)sc12 [(R)-11, (R)—N-(7-chlorobenzo[d]thiazol-2-yl)-4H-1′-azaspiro[isoxazole-5,3′-bicyclo[2.2.2]octan]-3-amine]
Second: Fc1ccc2sc(NC3=NO[C@@]4(C3)CN3CCC4CC3)nc2c1 [(R)-27, (R)—N-(5-fluorobenzo[d]thiazol-2-yl)-4H-1′-azaspiro[isoxazole-5,3′-bicyclo[2.2.2]octan]-3-amine hydrochloride]
The Ki of the first is 19-fold lower: 0.305 µM for the first, 5.7 µM for the second. The first binds more tightly here.

`Clc1ccc2cnc(NC3=NO[C@@]4(C3)CN3CCC4CC3)cc2c1` [(R)-18, (R)—N-(6-chloroisoquinolin-3-yl)-4H-1′-azaspiroksoxazole-5,3^1-bicyclo[2.2.2]octan1-3-amine hydrochloride] and `Fc1ccc2cnc(NC3=NO[C@@]4(C3)CN3CCC4CC3)cc2c1` [(R)-45, (R)—N-(6-fluoroisoquinolin-3-yl)-4H-1′-azaspiro[isoxazole-5,3′-bicyclo[2.2.2]octan]-3-amine hydrochloride] cannot be ordered by Ki: over 10 µM for the first, over 10 µM for the second.

First: Clc1cccc2cc(NC3=NO[C@@]4(C3)CN3CCC4CC3)ncc12 [(R)-23, (R)—N-(8-chloroisoquinolin-3-yl)-4H-1′-azaspiroksoxazole-5,3^1-bicyclo[2.2.2]octan1-3-amine hydrochloride]
Second: Clc1cccc2cnc(NC3=NO[C@@]4(C3)CN3CCC4CC3)cc12 [(R)-24, (R)—N -(5-chloroisoquinolin-3-yl)-4H-1′-azaspiroksoxazole-5,3′-bicyclo[2.2.2]octan1-3-amine hydrochloride]
The Ki of the first is 4.6-fold higher: 1.2 µM for the first, 0.26 µM for the second.

Going from `Clc1cc2nc(NC3=NO[C@@]4(C3)CN3CCC4CC3)sc2cc1Cl` [(R)-30, (R)—N-(5 ,6 - dichlor obenzo[d]thiazol-2-yl)-4H-1′-azaspiro[isoxazole-5,3′-bicyclo[2.2.2]octan]-3-amine hydrochloride] to `Cc1nc2ccc(NC3=NO[C@@]4(C3)CN3CCC4CC3)cc2s1` [(R)-50, (R)—N-(2-methylbenzo[d]thiazol-6-yl)-4H-1′-azaspiro[isoxazole-5,3′-bicyclo[2.2.2]octan]-3-amine hydrochloride], the Ki falls from over 10 µM to 6.2 µM. The second binds more tightly here.

`Cc1cc2ccc(NC3=NO[C@@]4(C3)CN3CCC4CC3)cc2o1` [(R)-40, (R)—N-(2-methylbenzofuran-6-yl)-4H-1′-azaspiro[isoxazole-5,3′-bicyclo[2.2.2]octan]-3-amine hydrochloride] and `Cc1cc2ccc(NC3=NO[C@@]4(C3)CN3CCC4CC3)cc2s1` [(R)-42, (R)—N-(2-methylbenzo[b]thiophen-6-yl)-4H-1′-azaspiro[isoxazole-5,3′-bicyclo[2.2.2]octan]-3-amine hydrochloride] cannot be ordered by Ki: over 10 µM for the first, over 10 µM for the second.

Going from `Cc1cc2cc(NC3=NO[C@@]4(C3)CN3CCC4CC3)ccc2s1` [(R)-43, (R)—N-(2-methylbenzo[b]thiophen-5-yl)-4H-1′-azaspiro[isoxazole-5,3′-bicyclo[2.2.2.]octan]-3-amine hydrochloride] to `Fc1ccc2cc(NC3=NO[C@@]4(C3)CN3CCC4CC3)ncc2c1` [(R)-44, (R)—N-(7-fluoroisoquinolin-3-yl)-4H-F-azaspiro[isoxazole-5,3^1-bicyclo[2.2.2]octan]-3-amine hydrochloride], the Ki rises from 5.9 µM to over 10 µM. The first binds more tightly here.

`COc1ccc2cc(NC3=NO[C@@]4(C3)CN3CCC4CC3)ncc2c1` [(R)-46, (R)—N-(7-methoxyisoquinolin-3-yl)-4H-1′-azaspiro[isoxazole-5,3′-bicyclo[2.2.2]octan]-3-amine hydrochloride] and `COc1ccc2cnc(NC3=NO[C@@]4(C3)CN3CCC4CC3)cc2c1` [(R)-47, (R)—N-(6-methoxyisoquinolin-3-yl)-4H-1′-azaspiro[isoxazole-5,3′-bicyclo[2.2.2]octan]-3-amine hydrochloride] cannot be ordered by Ki: over 10 µM for the first, over 10 µM for the second.

`Clc1ccc2nc(NC3=NO[C@@]4(C3)CN3CCC4CC3)ncc2c1` [(R)-48, (R)—N-(6-chloroquinazolin-2-yl)-4H-1′-azaspiro[isoxazole-5,3′-bicyclo[2.2.2]octan]-3-amine hydrochloride] and `Clc1ccc2cnc(NC3=NO[C@@]4(C3)CN3CCC4CC3)nc2c1` [(R)-49, (R)—N-(7-chloroquinazolin-2-yl)-4H-1′-azaspiro[isoxazole-5,3′-bicyclo[2.2.2]octan]-3-amine] cannot be ordered by Ki: over 10 µM for the first, over 10 µM for the second.

— US20170247393A1, “Aminoisoxazoline Compounds as Agonists of Alpha7-Nicotinic Acetylcholine Receptors” (Forum Pharmaceuticals, Inc., priority 2015, published 2017)
